Inconclusive results and toxic doses are left out. Rule as the data show it: active = T/C of 150% or more; inactive = T/C below 125%.
Test system: L1210 leukemia ip in BDF1 mice, survival T/C
Test: NCI In Vivo Anticancer Drug Screen. Data for tumor model L1210 Leukemia (intraperitoneal) in B6D2F1 (BDF1) mice
Conditions: endpoint: mean survival time, higher = longer survival
Procedure, shortened: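 Read-out is survival time, reported as the treated-group measurement over the vehicle-control measurement.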

[1] = dose: 100.0 mg/kg/injection, schedule: Q04DX003 (ip), vehicle: saline with Tween-80
[2] = dose: 200.0 mg/kg/injection, schedule: Q04DX003 (ip), vehicle: saline with Tween-80
[3] = dose: 50.0 mg/kg/injection, schedule: Q01DX009 (ip), vehicle: saline
[4] = dose: 100.0 mg/kg/injection, schedule: Q01DX009 (ip), vehicle: saline
[5] = dose: 200.0 mg/kg/injection, schedule: Q01DX009 (ip), vehicle: saline
[6] = dose: 100.0 mg/kg/injection, schedule: Q01DX001 (ip), vehicle: carboxymethylcellulose (CMC)
[7] = dose: 200.0 mg/kg/injection, schedule: Q01DX001 (ip), vehicle: carboxymethylcellulose (CMC)
[8] = dose: 400.0 mg/kg/injection, schedule: Q01DX001 (ip), vehicle: carboxymethylcellulose (CMC)
[9] = dose: 400.0 mg/kg/injection, schedule: Q04DX003 (ip), vehicle: saline with Tween-80
[10] = dose: 50.0 mg/kg/injection, schedule: Q01DX001 (ip), vehicle: carboxymethylcellulose (CMC)

Measured: T/C

CC1(C)N=C(N)N=C(N)N1c1ccc(CCc2ccc(S(=O)(=O)F)cc2)cc1
inactive: dose: 100.0 mg/kg/injection, schedule: Q01DX001 (ip), vehicle: saline with Tween-80 97 % of control | dose: 200.0 mg/kg/injection, schedule: Q01DX001 (ip), vehicle: saline with Tween-80 97 % of control | dose: 400.0 mg/kg/injection, schedule: Q01DX001 (ip), vehicle: saline with Tween-80 102 % of control

O=C(CCl)NC(CO)C(=O)O (centres undefined)
inactive: dose: 100.0 mg/kg/injection, schedule: Q01DX009 (ip), vehicle: saline with Tween-80 89 % of control | [1] 103 % of control | dose: 200.0 mg/kg/injection, schedule: Q01DX009 (ip), vehicle: saline with Tween-80 87 % of control | [2] 94 % of control

CCN(CC)CC(O)c1ccccc1 (centres undefined)
inactive: dose: 25.0 mg/kg/injection, schedule: Q01DX009 (ip), vehicle: saline 100 % of control | dose: 25.0 mg/kg/injection, schedule: Q04DX003 (ip), vehicle: saline 98 % of control | [3] 98 % of control | dose: 50.0 mg/kg/injection, schedule: Q04DX003 (ip), vehicle: saline 93 % of control | dose: 100.0 mg/kg/injection, schedule: Q04DX003 (ip), vehicle: saline 100 % of control

Cn1ncc(=O)[nH]c1=O
inactive: [3] 100 % of control | [4] 108 % of control | [5] 103 % of control

Nc1c(Br)c(Cl)cc2c1-c1ccc(Cl)cc1C2S (centres undefined)
inactive: [6] 104 % of control | [7] 95 % of control | [8] 90 % of control

NC(=S)N/N=C1/c2ccccc2-c2cc(Br)ccc21
inactive: dose: 50.0 mg/kg/injection, schedule: Q04DX003 (ip), vehicle: Klucel (hydroxypropylcellulose) (HPC) 106 % of control | dose: 100.0 mg/kg/injection, schedule: Q04DX003 (ip), vehicle: Klucel (hydroxypropylcellulose) (HPC) 97 % of control | dose: 200.0 mg/kg/injection, schedule: Q04DX003 (ip), vehicle: Klucel (hydroxypropylcellulose) (HPC) 100 % of control

CC(C)=NOC(CC(=O)O)C(=O)O (centres undefined)
inactive: dose: 100.0 mg/kg/injection, schedule: Q04DX002 (ip), vehicle: saline 96 % of control | dose: 200.0 mg/kg/injection, schedule: Q04DX002 (ip), vehicle: saline 96 % of control | dose: 400.0 mg/kg/injection, schedule: Q04DX002 (ip), vehicle: saline 96 % of control

CCCCCCCCCCCCCS
inactive: dose: 40.0 mg/kg/injection, schedule: Q01DX Z (ip), vehicle: saline 108 % of control | dose: 50.0 mg/kg/injection, schedule: Q04DX003 (ip), vehicle: carboxymethylcellulose (CMC) 100 % of control | dose: 60.0 mg/kg/injection, schedule: Q01DX Z (ip), vehicle: saline 120 % of control | dose: 90.0 mg/kg/injection, schedule: Q01DX Z (ip), vehicle: saline 111 % of control | [6] 110 % of control | dose: 100.0 mg/kg/injection, schedule: Q04DX003 (ip), vehicle: carboxymethylcellulose (CMC) 105 % of control | dose: 135.0 mg/kg/injection, schedule: Q01DX Z (ip), vehicle: saline 120 % of control | [7] 101 % of control | dose: 200.0 mg/kg/injection, schedule: Q01DX Z (ip), vehicle: saline 108 % of control | dose: 200.0 mg/kg/injection, schedule: Q04DX003 (ip), vehicle: carboxymethylcellulose (CMC) 100 % of control | dose: 202.5 mg/kg/injection, schedule: Q01DX Z (ip), vehicle: saline 117 % of control | [8] 116 % of control | dose: 450.0 mg/kg/injection, schedule: Q01DX Z (ip), vehicle: saline 108 % of control | dose: 675.0 mg/kg/injection, schedule: Q01DX Z (ip), vehicle: saline 90 % of control

CC(=O)SCN1C(=O)C2C3CCC(O3)C2C1=O (centres undefined)
inactive: dose: 100.0 mg/kg/injection, schedule: Q04DX002 (ip), vehicle: Klucel (hydroxypropylcellulose) (HPC) 91 % of control | dose: 200.0 mg/kg/injection, schedule: Q04DX002 (ip), vehicle: Klucel (hydroxypropylcellulose) (HPC) 91 % of control | dose: 400.0 mg/kg/injection, schedule: Q04DX002 (ip), vehicle: Klucel (hydroxypropylcellulose) (HPC) 105 % of control

O=C(O)c1cscc1-c1cccc2ccccc12
inactive: [1] 91 % of control | [2] 98 % of control

Nc1ncnc(N)c1N(C=O)Cc1ccccc1
inactive: dose: 100.0 mg/kg/injection, schedule: Q01DX001 (ip), vehicle: acetone 96 % of control | dose: 200.0 mg/kg/injection, schedule: Q01DX001 (ip), vehicle: acetone 94 % of control | dose: 400.0 mg/kg/injection, schedule: Q01DX001 (ip), vehicle: acetone 91 % of control

CCOc1ccc(/C=N/Nc2ccc([N+](=O)[O-])cc2)cc1OC
inactive: dose: 25.0 mg/kg/injection, schedule: Q01DX009 (ip), vehicle: saline sonified 93 % of control | dose: 37.5 mg/kg/injection, schedule: Q01DX009 (ip), vehicle: saline with Tween-80 91 % of control | dose: 50.0 mg/kg/injection, schedule: Q01DX009 (ip), vehicle: saline sonified 103 % of control | dose: 75.0 mg/kg/injection, schedule: Q01DX009 (ip), vehicle: saline with Tween-80 93 % of control | dose: 100.0 mg/kg/injection, schedule: Q01DX009 (ip), vehicle: saline sonified 98 % of control | [1] 90 % of control | dose: 150.0 mg/kg/injection, schedule: Q01DX009 (ip), vehicle: saline with Tween-80 96 % of control | [2] 97 % of control | dose: 400.0 mg/kg/injection, schedule: Q04DX003 (ip), vehicle: saline sonified 88 % of control | [9] 87 % of control

N#CC(C#N)=Cc1ccccc1[N+](=O)[O-]
inactive: dose: 25.0 mg/kg/injection, schedule: Q01DX Z (ip), vehicle: methylcellulose (MC) 98 % of control | dose: 50.0 mg/kg/injection, schedule: Q01DX Z (ip), vehicle: methylcellulose (MC) 88 % of control

CCOC(=O)C1CCc2c(ccc3ccccc23)N1C(C)=O (centres undefined)
inactive: dose: 100.0 mg/kg/injection, schedule: Q01DX009 (ip), vehicle: Klucel (hydroxypropylcellulose) (HPC) 94 % of control | dose: 200.0 mg/kg/injection, schedule: Q01DX009 (ip), vehicle: Klucel (hydroxypropylcellulose) (HPC) 88 % of control | dose: 400.0 mg/kg/injection, schedule: Q01DX009 (ip), vehicle: Klucel (hydroxypropylcellulose) (HPC) 91 % of control

O=c1c2[nH]cnc2ncn1Cc1ccccc1
inactive: dose: 100.0 mg/kg/injection, schedule: Q01DX001 (ip), vehicle: Klucel (hydroxypropylcellulose) (HPC) 102 % of control | dose: 200.0 mg/kg/injection, schedule: Q01DX001 (ip), vehicle: Klucel (hydroxypropylcellulose) (HPC) 98 % of control | dose: 400.0 mg/kg/injection, schedule: Q01DX001 (ip), vehicle: Klucel (hydroxypropylcellulose) (HPC) 109 % of control

COc1ccc2c(c1)CN(S(=O)(=O)c1ccc(C)cc1)CCC2=O
inactive: [4] 102 % of control | [5] 98 % of control | dose: 400.0 mg/kg/injection, schedule: Q01DX009 (ip), vehicle: saline 95 % of control

CN1CCCCCCCC(=O)C(OC(=O)c2ccc([N+](=O)[O-])cc2)CCCCCCC1 (centres undefined)
inactive: [10] 95 % of control | [6] 97 % of control | [7] 95 % of control | [8] 95 % of control

COc1cc(C(=O)O)ccc1N
inactive: [1] 102 % of control | [2] 104 % of control | [9] 102 % of control

CN(C)c1ccc2c(c1)oc(=O)c1ccccc12
inactive: [10] 93 % of control | [6] 104 % of control | [7] 112 % of control | [8] 91 % of control

CCOc1cccc(CCC(=O)O)c1
inactive: dose: 100.0 mg/kg/injection, schedule: Q04DX003 (ip), vehicle: gum acacia 105 % of control | dose: 200.0 mg/kg/injection, schedule: Q04DX003 (ip), vehicle: gum acacia 96 % of control | dose: 400.0 mg/kg/injection, schedule: Q04DX003 (ip), vehicle: gum acacia 93 % of control

CN(C)c1ccc(-c2nc3nc[nH]c(=O)c3[nH]2)cc1
inactive: dose: 5.0 mg/kg/injection, schedule: Q01DX001 (ip), vehicle: saline 100 % of control | dose: 10.0 mg/kg/injection, schedule: Q01DX001 (ip), vehicle: saline 96 % of control | dose: 20.0 mg/kg/injection, schedule: Q01DX001 (ip), vehicle: saline 96 % of control | dose: 40.0 mg/kg/injection, schedule: Q01DX001 (ip), vehicle: saline 96 % of control | dose: 80.0 mg/kg/injection, schedule: Q01DX001 (ip), vehicle: saline 96 % of control

Cc1ccc([I+]c2ccccc2C(=O)[O-])c(C)c1
inactive: dose: 50.0 mg/kg/injection, schedule: Q01DX001 (ip), vehicle: saline 98 % of control | dose: 100.0 mg/kg/injection, schedule: Q01DX001 (ip), vehicle: saline 102 % of control | dose: 200.0 mg/kg/injection, schedule: Q01DX001 (ip), vehicle: saline 104 % of control

— PubChem BioAssay AID248 (DTP/NCI, 2004)
